Experimental findings from patent US20260125382A1, “COMPOUNDS FOR INHIBITING OR DEGRADING CDK2 AND/OR CDK9 AND MEDICINAL USE THEREOF” (KOREA RESEARCH INSTITUTE OF CHEMICAL TECHNOLOGY, priority 2022, published 2026) are described below.

The target of one assay is T1, CDK2 (Homo sapiens, UniProt P24941).
T1 construct: endogenous in cells; host or cells: MDA-MB-231
Briefly: CDK protein degradation activity (Western blotting), CDK2. Type of assay: cell-based. The conditions noted are these: MDA-MB-231 cells, 16 hours, Western blot. An outline of the steps: (§1)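 MDA-MB-231; cmpd 100 nM / 1 μM / 10 μM final vs DMSO, 16 h. Triton X-100 lysates (pH 7.5, phosphatase/protease inhibitors) → SDS-PAGE → Western blot, anti-CDK2, anti-CDK9, tubulin loading control; densitometry.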

Another assay has as its target T2, CDK9 (Homo sapiens, UniProt P50750).
T2 construct: endogenous in cells; host or cells: MDA-MB-231
The assay can be described thus: CDK protein degradation activity (Western blotting), CDK9. In kind it is cell-based. Particulars: MDA-MB-231 cells, 16 hours, Western blot. Summed up:
as §1
On the technique in general: Immunoblotting shows a protein as a band on a membrane.

T2 sequence (P50750 whole entry): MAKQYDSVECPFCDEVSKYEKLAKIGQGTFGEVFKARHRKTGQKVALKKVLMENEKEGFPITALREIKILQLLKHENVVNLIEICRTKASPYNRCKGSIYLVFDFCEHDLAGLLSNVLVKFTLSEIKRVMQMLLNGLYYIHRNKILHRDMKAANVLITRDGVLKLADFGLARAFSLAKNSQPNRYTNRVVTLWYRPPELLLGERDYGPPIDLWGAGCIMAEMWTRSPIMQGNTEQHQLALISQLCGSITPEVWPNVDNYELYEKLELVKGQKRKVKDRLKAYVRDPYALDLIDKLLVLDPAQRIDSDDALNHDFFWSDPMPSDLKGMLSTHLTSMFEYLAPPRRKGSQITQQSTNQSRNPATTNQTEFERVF

As to `Cc1cccc(C(=O)N[C@H]2C[C@H](n3cnc4c(NCC5CCN(CC6CCN(C(=O)CNc7cccc8c7C(=O)N(C7CCC(=O)NC7=O)C8=O)CC6)CC5)ncnc43)C2)n1` (stereo partly drawn) [Compound 75, N-((1r,3r)-3-(6-(((1-((1-((2-(2,6-dioxopiperidin-3-yl)-1,3-dioxoisoindolin-4-yl)glycyl)piperidin-4-yl)methyl)piperidin-4-yl)methyl)amino)-9H-purin-9-yl)cyclobutyl)-6-methylpicolinamide], on CDK2, the “Enzyme degradation CDK2 (% remaining) @ 0.1 μM” value is 20%, the “Enzyme degradation CDK2 (% remaining) @ 1 μM” value is given as 10% and the “Enzyme degradation CDK2 (% remaining) @ 10 μM” value is 30%. Further, on CDK9, the “Enzyme degradation CDK9 (% remaining) @ 0.1 μM” value was 0%, the “Enzyme degradation CDK9 (% remaining) @ 1 μM” value came to 0% and the “Enzyme degradation CDK9 (% remaining) @ 10 μM” value was 10%.

For the compound `O=C1CC[C@H](N2C(=O)c3cc(F)c(N4CCC(C(=O)N5CCC(CN6CCN(c7ccc(Nc8ncnc9c8ncn9C8CC(NC(=O)c9cccc(Cl)n9)C8)cc7)CC6)CC5)CC4)cc3C2=O)C(=O)N1` (stereo partly drawn) [Compound 453, 6-chloro-N-((1s,3s)-3-(6-((4-(4-((1-(1-(2-(2,6-dioxopiperidin-3-yl)-6-fluoro-1,3-dioxoisoindolin-5-yl)piperidin-4-carbonyl)piperidin-4-yl)methyl)piperazin-1-yl)phenyl)amino)-9H-purin-9-yl)cyclobutyl)picolinamide], at CDK2, the “Enzyme degradation CDK2 (% remaining) @ 0.1 μM” value was 20%, the “Enzyme degradation CDK2 (% remaining) @ 1 μM” value worked out at 20% and the “Enzyme degradation CDK2 (% remaining) @ 10 μM” value is reported as 30%. Besides, on CDK9, the “Enzyme degradation CDK9 (% remaining) @ 0.1 μM” value was 0/0/0%, the “Enzyme degradation CDK9 (% remaining) @ 1 μM” value is reported as 0/0/0% and the “Enzyme degradation CDK9 (% remaining) @ 10 μM” value is 0/0/0%.

Regarding `O=C1CC[C@H](N2C(=O)c3cccc(NC[C@H]4CC[C@H](CN5CCN(c6ccc(Nc7ncnc8c7ncn8[C@H]7C[C@@H](NC(=O)Cc8ccccc8)C7)cc6)CC5)CC4)c3C2=O)C(=O)N1` [Compound 222, N-((1s,3s)-3-(6-((4-(4-(((1r,4r)-4-(((2-(2,6-dioxopiperidin-3-yl)-1,3-dioxoisoindolin-4-yl)amino)methyl)cyclohexyl)methyl)piperazin-1-yl)phenyl)amino)-9H-purin-9-yl)cyclobutyl)-2-phenylacetamide], at CDK2, the “Enzyme degradation CDK2 (% remaining) @ 0.1 μM” value is 100/100/100%, the “Enzyme degradation CDK2 (% remaining) @ 1 μM” value is recorded as 100/100/100% and the “Enzyme degradation CDK2 (% remaining) @ 10 μM” value is given as 100/100/100%. Besides, at CDK9, the “Enzyme degradation CDK9 (% remaining) @ 0.1 μM” value was determined as 70%, the “Enzyme degradation CDK9 (% remaining) @ 1 μM” value is given as 70% and the “Enzyme degradation CDK9 (% remaining) @ 10 μM” value was 80%.

Consider `Cc1cccc(C(=O)N[C@H]2C[C@@H](n3cnc4c(NCc5ccc(N6CCN(C(=O)CNc7ccc8c(c7)C(=O)N([C@H]7CCC(=O)NC7=O)C8=O)CC6)cc5)ncnc43)C2)n1` [Compound 149, N-((1s,3s)-3-(6-((4-(4-((2-(2,6-dioxopiperidin-3-yl)-1,3-dioxoisoindolin-5-yl)glycyl)piperazin-1-yl)benzyl)amino)-9H-purin-9-yl)cyclobutyl)-6-methylpicolinamide], for which, at CDK2, the “Enzyme degradation CDK2 (% remaining) @ 0.1 μM” value came to 10%, the “Enzyme degradation CDK2 (% remaining) @ 1 μM” value came out at 20% and the “Enzyme degradation CDK2 (% remaining) @ 10 μM” value amounted to 20%. Besides, at CDK9, the “Enzyme degradation CDK9 (% remaining) @ 0.1 μM” value is 0/0/0%, the “Enzyme degradation CDK9 (% remaining) @ 1 μM” value is recorded as 0/0/0% and the “Enzyme degradation CDK9 (% remaining) @ 10 μM” value is recorded as 0/0/0%.

For the compound `O=C1CC[C@H](N2C(=O)c3cccc(NCC(=O)N4CCC5(CC4)CC(N4CCN(c6ccc(Nc7ncnc8c7ncn8[C@H]7C[C@@H](NC(=O)Cc8ccccc8)C7)cc6)CC4)C5)c3C2=O)C(=O)N1` [Compound 204, N-((1s,3s)-3-(6-((4-(4-(7-((2-(2,6-dioxopiperidin-3-yl)-1,3-dioxoisoindolin-4-yl)glycyl)-7-azaspiro[3.5]nonan-2-yl)piperazin-1-yl)phenyl)amino)-9H-purin-9-yl)cyclobutyl)-2-phenylacetamide], at CDK2, the “Enzyme degradation CDK2 (% remaining) @ 0.1 μM” value is 20/20/20%, the “Enzyme degradation CDK2 (% remaining) @ 1 μM” value is on record as 20/20/20% and the “Enzyme degradation CDK2 (% remaining) @ 10 μM” value was 20/20/20%. Besides, on CDK9, the “Enzyme degradation CDK9 (% remaining) @ 0.1 μM” value is 0/0/0%, the “Enzyme degradation CDK9 (% remaining) @ 1 μM” value was 0/0/0% and the “Enzyme degradation CDK9 (% remaining) @ 10 μM” value is 0/0/0%.

In the case of `O=C1CC[C@H](N2C(=O)c3ccc(N4CCC(CN5CCN(c6ccc(Nc7ncnc8c7ncn8[C@H]7C[C@@H](NC(=O)c8cccc(F)n8)C7)cc6)CC5)CC4)cc3C2=O)C(=O)N1` [Compound 390, N-((1s,3s)-3-(6-((4-(4-((1-(2-(2,6-dioxopiperidin-3-yl)-1,3-dioxoisoindolin-5-yl)piperidin-4-yl)methyl)piperazin-1-yl)phenyl)amino)-9H-purin-9-yl)cyclobutyl)-6-fluoropicolinamide], on CDK2, the “Enzyme degradation CDK2 (% remaining) @ 0.1 μM” value is given as 20/20/20%, the “Enzyme degradation CDK2 (% remaining) @ 1 μM” value is 20/20/20% and the “Enzyme degradation CDK2 (% remaining) @ 10 μM” value is listed as 20/20/20%. On CDK9, the “Enzyme degradation CDK9 (% remaining) @ 0.1 μM” value worked out at 10%, the “Enzyme degradation CDK9 (% remaining) @ 1 μM” value is 0% and the “Enzyme degradation CDK9 (% remaining) @ 10 μM” value stood at 0%.

For `O=C1CCC(N2C(=O)c3ccc(N4CCC(C(=O)N5CCC(CN6CCC(CCNc7ncnc8c7ncn8[C@H]7C[C@@H](NC(=O)c8c(Cl)cccc8Cl)C7)CC6)CC5)CC4)cc3C2=O)C(=O)N1` (stereo partly drawn) [Compound 400, 2,6-dichloro-N-((1s,3s)-3-(6-((2-(1-((1-(1-(2-(2,6-dioxopiperidin-3-yl)-1,3-dioxoisoindolin-5-yl)piperidin-4-carbonyl)piperidin-4-yl)methyl)piperidin-4-yl)ethyl)amino)-9H-purin-9-yl)cyclobutyl)benzamide], on CDK2, the “Enzyme degradation CDK2 (% remaining) @ 0.1 μM” value stood at 30%, the “Enzyme degradation CDK2 (% remaining) @ 1 μM” value is given as 30% and the “Enzyme degradation CDK2 (% remaining) @ 10 μM” value came to 40%. Also, on CDK9, the “Enzyme degradation CDK9 (% remaining) @ 0.1 μM” value is 0/0/0%, the “Enzyme degradation CDK9 (% remaining) @ 1 μM” value is recorded as 0/0/0% and the “Enzyme degradation CDK9 (% remaining) @ 10 μM” value is on record as 0/0/0%.

On to `Cc1cccc(C(=O)NC2CC(n3cnc4c(Nc5ccc(N6CCN(CC7CCN(C(=O)CNc8cccc9c8C(=O)N([C@H]8CCC(=O)NC8=O)C9=O)CC7)CC6)cc5)ncnc43)C2)n1` (stereo partly drawn) [Compound 93, N-((1s,3s)-3-(6-((4-(4-((1-((2-(2,6-dioxopiperidin-3-yl)-1,3-dioxoisoindolin-4-yl)glycyl)piperidin-4-yl)methyl)piperazin-1-yl)phenyl)amino)-9H-purin-9-yl)cyclobutyl)-6-methylpicolinamide], for which, at CDK2, the “Enzyme degradation CDK2 (% remaining) @ 0.1 μM” value came to 0%, the “Enzyme degradation CDK2 (% remaining) @ 1 μM” value is reported as 10% and the “Enzyme degradation CDK2 (% remaining) @ 10 μM” value was 10%. In addition, at CDK9, the “Enzyme degradation CDK9 (% remaining) @ 0.1 μM” value is recorded as 0/0/0%, the “Enzyme degradation CDK9 (% remaining) @ 1 μM” value was 0/0/0% and the “Enzyme degradation CDK9 (% remaining) @ 10 μM” value is recorded as 0/0/0%.
